Where two headings read alike, the source gives them in different places.
Columns and labels:
[1] = mice, intraperitoneal injection; cited from earlier work
[2] = rats, intraperitoneal injection; cited from earlier work
[3] = test system: MCF10; conditions: cited from earlier work
[4] = test system: MCF7; test: Cytotoxicity IC50 against MCF7 cells; assay type: cell-based; conditions: Homo sapiens
[5] = test system: microtubules formed from porcine brain tubulin; test: Electron microscopy of polymerized tubulin; assay type: biochemical; conditions: 10 μM
Excerpt: Aliquots of polymerized tubulin were placed on 300-mesh carbon-coated, Formvar-treated copper grids and immediately stained with 5–10 successively applied drops of 1% (w/v) uranyl acetate. Excess stain was wicked from the grids with torn filter paper. The grids were examined in a Hitachi H-9500 High-resolution Transmission Electron Microscope.

[6] = test system: HUVEC; conditions: cited from earlier work
[7] = test system: H358; test: Cytotoxicity IC50 against H358 cells; assay type: cell-based; conditions: Homo sapiens, NCI-H358
[8] = test system: MCF10 and MCF7 cells; design: method as in PMID 28605571; conditions: cited from earlier work
[9] = test system: mouse fibroblast cells; design: method as in PMID 20059301; conditions: mouse fibroblast cell line; cited from earlier work
[10] = test system: MTs; design: method as in PMID 15057285, PMID 29523799; conditions: competitive binding titrations; cited from earlier work
[11] = test system: H358; conditions: cited from earlier work
[12] = test system: free tubulin in H358 cells; test: Western blot of free tubulin in cytosol of H358 cells; assay type: cell-based, human; conditions: PTX 0.1 μM or RPC2 1.7 μM, 12 h
Procedure: […] The confluent 60 mm dishes of cells were washed 3 times with 37 °C PBS, then lysed in microtubule stabilization buffer (Tris–HCl pH 6.8, 20 mM, NaCl 140 mM, MgCl2 1 mM, NP40 0.5%, EGTA 2 mM, 10 μM of Taxol) and protease inhibitors (100× Protease Inhibitor Cocktail (PIC) and 100× phenylmethane sulfonyl fluoride (PMSF)). Then, the cells were scraped, mixed and quickly transfer to microtubes. These samples were then spun at 10 000 rpm for 20 minutes, the supernatants containing free tubulin were collected and a bicinchoninic acid (BCA) protein assay was performed to check the protein quantity. Equal amounts of protein sample were prepared in Laemmli sample buffer and were boiled for 5 min at 95 °C. Proteins were resolved on a 12% polyacrylamide gel. The proteins were transferred to a nitrocellulose membrane for 1.5 h at 100 V. The nitrocellulose membrane was stained for 1 min with Ponceau Red to verify the efficiency of the transfer. Then, the membrane was blocked in 5% skim milk for 1 h at room temperature and incubated with primary alpha tubulin monoclonal antibody in 5% BSA overnight at 4 °C. The membrane was washed 3 times with TBST buffer before being probed with secondary antibodies conjugated to HRP, then the membrane was incubated for 1 h at room temperature before it was washed 3 times again with TBST buffer. […]

[13] = test system: MCF7 and MCF10a cells expressing GFP-EB3; test: Spinning disk confocal imaging of GFP-EB3 comets in live cells; assay type: cell-based, human; conditions: IC50 dose
Procedure: MCF7 cells were cultured in phenol-red DMEM media (HyClone™, GE healthcare) supplemented with 10% FBS and penicillin/streptomycin at 37 °C in 5% CO2. MCF10A cells were cultured in low-calcium phenol-red DMEM/F12 (HyClone™, GE healthcare) supplemented with final concentration of 5% horse serum, 20 ng mL^−1 EGF, […] hydrocortisone, 100 ng mL^−1 Cholera toxin, 10 μg mL^−1 insulin, and 1% pen-strep. For live imaging, 500 000 cells per mL of both MCF7 and MCF10A cells were transfected with the cDNA (EGFP-EB3), and then cultured on 10 μg mL^−1 fibronectin coated 35 mm glass-bottom dishes (Cellvis, cat#: D35-20-1.5-N). Transfection of EGFP-EB3 was performed using a Lonza Nucleofector Device with Ingenio electroporation kit (Cat# MIR 50112, Mirus). Cells were treated with RPC2 18–24 hours post-transfection to allow time for cDNA expression. To minimize photobleaching, phenol-free DMEM was supplemented with 10% FBS and 25 mM HEPES, pH = 7.2 replaced the original media and was administered before RPC2 treatment. Time-lapse imaging was obtained before, 30 min, 1 h, 2 h, and 3 h after RPC2 treatment for both MCF7 and MCF10A. Images were obtained on a Zeiss Axiovert (Jena, Germany) microscope with a Zeiss alpha Plan-Fluar 100×, 1.45 NA oil objective and a spinning disk confocal scan head (Yokogawa CSU-X1, Tokyo, Japan). […]

[14] = test system: mouse fibroblast cells; design: method as in PMID 6103535; conditions: PTX 0.25 μM, cited from earlier work
[15] = test system: porcine brain tubulin; test: Isothermal titration calorimetry, free (unpolymerized) tubulin at 4 °C; assay type: binding; conditions: association constant, ITC
Procedure: (§1) ITC experiments were performed using a Microcal VP-ITC (Malvern) instrument. For polymerized porcine brain tubulin the calorimeter was set at 37 °C. For depolymerized porcine brain tubulin the calorimeter was set at 4 °C. Tubulin concentration was kept below 3 mg mL^−1 to ensure that minimal microtubule formation before any polymerization assays were performed in preparation for ITC experiments. Reverse titrations were used in all ITC experiments due to the low solubility of RPC2 in aqueous solutions. A typical ITC experiment involved fourteen 20 μL injections of tubulin (∼30 μM heterodimers, or 2 mg mL^−1) into a 1.45 mL cell of ligand solution. The ITC thermograms were corrected for titrate and titrant dilution effects by performing the appropriate blank experiments and correcting the observed heats by subtracting the heats of dilution. Corrected ITC titrations were fit with a nonlinear regression algorithm using CHASM, an ITC data analysis program developed in the Lewis laboratory to determine the thermodynamic parameters, including the association constant (K) and changes in free energy (ΔG), enthalpy (ΔH), and entropy (−TΔS).
Isothermal titration calorimetry (ITC) was used to measure the binding thermodynamics of RPC2 with tubulin and MTs. […]

[16] = target: T1, preformed microtubules (polymerized porcine brain tubulin) (Sus scrofa, UniProt P02550+P02554); test: Isothermal titration calorimetry, preformed microtubules at 37 °C; assay type: binding; conditions: ITC
T1 construct: For depolymerized porcine brain tubulin the calorimeter was set at 4 °C; purchased Cytoskeleton Inc., (Denver. CO); host or cells: porcine brain (tissue-purified)
Procedure: as §1
Isothermal titration calorimetry (ITC) was used to measure the binding thermodynamics of RPC2 with tubulin and MTs. Reverse titrations (protein introduced into solutions with a fixed ligand concentration) were done as the poor solubility of RPC2 limited its concentration range. […] Experiments were either performed starting at 4 °C or 37 °C to obtain a population of tubulin in the free, unpolymerized state (4 °C) or polymerized state as MTs (37 °C), as these two structures present a different collection of binding sites to the ligand.

T1 sequence (P02550 whole entry): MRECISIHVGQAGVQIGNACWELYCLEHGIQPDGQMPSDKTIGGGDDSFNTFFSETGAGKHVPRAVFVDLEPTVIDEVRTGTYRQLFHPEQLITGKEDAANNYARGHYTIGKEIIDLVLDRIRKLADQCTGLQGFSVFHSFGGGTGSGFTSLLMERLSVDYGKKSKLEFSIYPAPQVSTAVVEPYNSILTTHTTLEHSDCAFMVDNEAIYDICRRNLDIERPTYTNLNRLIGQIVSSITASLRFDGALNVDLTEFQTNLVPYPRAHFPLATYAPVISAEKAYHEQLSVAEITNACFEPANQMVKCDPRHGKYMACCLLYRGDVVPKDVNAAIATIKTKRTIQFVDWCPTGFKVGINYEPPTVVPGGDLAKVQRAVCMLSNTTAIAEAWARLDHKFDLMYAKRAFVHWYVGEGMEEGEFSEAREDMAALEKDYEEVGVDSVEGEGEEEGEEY
T1 sequence (P02554 whole entry): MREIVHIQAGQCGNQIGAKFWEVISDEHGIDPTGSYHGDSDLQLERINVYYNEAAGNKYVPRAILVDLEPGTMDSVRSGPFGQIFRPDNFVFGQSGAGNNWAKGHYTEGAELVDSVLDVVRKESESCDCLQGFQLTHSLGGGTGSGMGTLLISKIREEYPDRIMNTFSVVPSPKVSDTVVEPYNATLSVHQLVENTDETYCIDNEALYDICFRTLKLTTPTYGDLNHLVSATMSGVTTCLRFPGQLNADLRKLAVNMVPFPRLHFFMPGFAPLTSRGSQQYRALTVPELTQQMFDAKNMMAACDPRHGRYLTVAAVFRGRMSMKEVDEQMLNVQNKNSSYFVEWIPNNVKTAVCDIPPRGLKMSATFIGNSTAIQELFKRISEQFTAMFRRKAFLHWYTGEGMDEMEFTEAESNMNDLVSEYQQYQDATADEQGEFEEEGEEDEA

[106Ru+2].[O-][Cl+3]([O-])([O-])[O-].[O-][Cl+3]([O-])([O-])[O-].c1cnc2c(c1)ccc1cccnc12.c1cnc2c(c1)ccc1cccnc12.c1cnc2c(c1)ccc1cccnc12 [[^106Ru(phen)3][ClO4]2]
time to excretion of the intact cation in the urine [1]: about 12 h
time to excretion of the intact cation in the urine [2]: about 12 h

COC(=O)Nc1nc2ccc(C(=O)c3cccs3)cc2[nH]1 [NCZ, nocodazole]
IC50 [3]: 480 nM
IC50 [4]: 3200 nM
Appearance of MTs in TEM images [5]: only small MT fragments or tubulin dimers are apparent
IC50 [6]: 200 nM
IC50 [7]: 1000 nM

[(DIP)2Ru(tatpp)Ru(DIP)2]^2+
selectivity index (SI = IC50 MCF10/IC50 MCF7) [8]: 11

[(DIP)2Ru(tatpp)]^2+
selectivity index (SI = IC50 MCF10/IC50 MCF7) [8]: 71

CC(=O)O[C@H]1C(=O)[C@@]2(C)[C@H]([C@H](OC(=O)c3ccccc3)[C@]3(O)C[C@H](OC(=O)[C@H](O)[C@@H](NC(=O)c4ccccc4)c4ccccc4)C(C)=C1C3(C)C)[C@]1(OC(C)=O)CO[C@@H]1C[C@@H]2O [PTX, paclitaxel]
IC50 [3]: 200 nM
IC50 [9]: 860 nM
association constant with MTs [10]: 1.07e+07 M⁻¹
IC50 [11]: 100 nM
Amount of free tubulin in the cytosol (western blot) [12]: substantially reduce the amount of free tubulin
time point at which changes in MT comet motion were apparent [13]: 30 min
IC50 [6]: 0.82 nM
population in G2/M ([14]; after 9 h): ~50%
population in G2/M ([14]; by 27 h): ~100%

CC(=O)O[C@@]12CO[C@@H]1C[C@H](O)[C@@]1(C)C(=O)[C@H](O)C3=C(C)[C@@H](OC(=O)[C@H](O)[C@@H](NC(=O)OC(C)(C)C)c4ccccc4)C[C@@](O)([C@@H](OC(=O)c4ccccc4)[C@H]21)C3(C)C [DTX, docetaxel]
K [15]: 8.1e+06 M⁻¹
association constant with MTs [10]: 3.09e+07 M⁻¹
ΔG ([16]; MT, 37 °C): -9.2 ± 0.9 kcal/mol
ΔH ([16]; MT, 37 °C): -33.4 ± 6.5 kcal/mol
Kd ([16]; preformed MTs, read-out: associative binding constant K to preformed microtubules (converted)): 182 nM
K ([16]; association constant, MT, 37 °C): 5.5e+06 M⁻¹

Reference: publication PMC8133002, “Disruption of microtubule function in cultured human cells by a cytotoxic ruthenium(II) polypyridyl complex” (Chemical Science, 2019)
